This passage reports inhibition, IC50 and CC50 results from ChEMBL document CHEMBL2429750, “Inhibitors of tick-borne flavivirus reproduction from structure-based virtual screening” (ACS Med Chem Lett, 2013).

Where only a bound is given, the exact number is not on record here.

In one series the test system is Powassan virus. The series can be described thus: Antiviral activity against Powassan virus 24 infected in PEK cells assessed as inhibition of viral plaque formation after 1 hr by gentian violet staining assay. Type of series: functional, cell-based. To be noted: for IC50: Powassan virus, 24, PEK.
For series [1], the system named is Tick-borne encephalitis virus. Briefly: Antiviral activity against Tick-borne encephalitis virus Absettarov infected in PEK cells assessed as inhibition of viral plaque formation after 1 hr by gentian violet staining assay. It is filed as functional, cell-based.
A short description of series [2]: Chronic cytotoxicity against PEK cells after 7 days by neutral red staining assay. Type of series: cell-based, Sus scrofa. To be noted: pig.
Series [3] in a line: Acute cytotoxicity against PEK cells after 24 hrs by neutral red staining assay. Type of series: cell-based, Sus scrofa. To be noted: pig.
Series [4] relates to Omsk hemorrhagic fever virus. Briefly: Antiviral activity against Omsk hemorrhagic fever virus Nikitina infected in PEK cells assessed as inhibition of viral plaque formation after 1 hr by gentian violet staining assay. Type of series: functional, cell-based.

As a reminder, the IC50 is the concentration at which inhibition is half-maximal. By CC50 is commonly meant the concentration at which the toxic effect on the cells reaches its halfway point. A high value points to lower toxicity to the cells. As for `CC1=C(C(=O)Nc2c(C)cccc2C)C(c2ccco2)C(C#N)=C(SCC(=O)Nc2nc3ccccc3s2)N1` (racemic), the inhibition entry (with Powassan virus; in series [1]; in series [4]) was “Dose-dependent effect” each time. The values for the IC50 (in the series on Powassan virus; in series [1]; in series [4]) were over 10 µM, over 10 µM and 7.1 µM, respectively. It took 7 µM to reach half-maximal cytotoxicity in series [2] (CC50 at 168 h). Further, in series [3], the CC50 at 24 h was over 250 µM.

`CCc1ccc(NC(=O)CSC2=C(C#N)C(c3ccco3)C(C(=O)Nc3ccc(CC)cc3)=C(C)N2)cc1` (racemic): the inhibition result (with Powassan virus; in series [1]; in series [4]) was “Dose-dependent effect” throughout. The IC50 (with Powassan virus; in series [1]; in series [4]) was over 10 µM in each case. This compound had a CC50 at 168 h in series [2] of 33 µM. Further, the CC50 at 24 h in series [3] stood at 57 µM.
